Measured values taken from patent US20220409620A1, “REDUCING IMMUNOGENICITY TO PEGLOTICASE” (Horizon Pharma Rheumatology LLC, priority 2016, published 2022).

Tested on: adult patients with uncontrolled gout
Assay: Serum uric acid (sUA) levels and sUA responder rate, open-label study of pegloticase with MTX (MIRROR OL)
Type: in vivo, human
Conditions: mITT Population
Experimental: The primary objective is to estimate the response rate during Month 6 (Weeks 20, 22, and 24), as measured by the sustained normalization of serum uric acid (SUA) to <6 mg/dL for at least 80% of the time during Month 6 in subjects receiving KXX with MTX.
The primary efficacy outcome endpoint is the sustained normalization of SUA to <6 mg/dL for at least 80% of the time during month 6 (weeks 20, 22, and 24) in subjects receiving KXX with MTX. […] Participants who achieve this endpoint were classified as “responders.” Serum uric acid (SUA) responders may also be defined as participants achieving and maintaining SUA <6 mg/dL for at least 80% of the time during Month 6 (Weeks 20, 22, and 24).
Blood samples may be collected prior to each pegloticase infusion for measurement of SUA levels using the Beckman Coulter AU System Uric Acid procedure. Participants were declared “non-responders” if there were SUA measures >6 mg/dL at 2 consecutive study visits beginning with the week 2 visit. […] This assumption and subsequent discontinuation of pegloticase was consistent with the protocol of large phase III randomized controlled trials and the product label. A formal stopping rule was 2 occasions of SUA levels of greater than 6 mg/dL.
Clinical Chemistry—Blood samples were collected prior to each pegloticase infusion for measurement of SUA levels (primary efficacy parameter) using the Beckman Coulter AU System Uric Acid procedure. In this procedure uric acid is converted to hydrogen peroxide. Hydrogen peroxide reacts with reagent to produce a chromophore which is read bichromatically at 660/800 nm. The amount of dye formed is proportional to the uric acid concentration in the sample.
Serum samples for measurement of SUA levels were collected at the Screening Visit, the Week −4 Visit (prior to the first dose of MTX), and the Week −2 Visit during the MTX Run-in Period; within 48 hours prior to each pegloticase infusion and after the end of each pegloticase infusion prior to discharge from the site during the Pegloticase+IMM Period; at the non-infusion Week 52/End of Study/Early Termination Visits and at the Post Treatment 3 and 6 Month Follow-up Visits. Additional serum samples for SUA levels were collected at optional non-infusion (Frequent Sampling) Visits at Weeks 1 and 7. […] Subjects with SUA level >6 mg/dL at 2 consecutive visits beginning at Week 2 visit discontinued treatment, completed the End of Pegloticase Infusion Visit procedures within 2 weeks and continued the subject visits according to the protocol (without treatment).
Efficacy analyses were performed using the modified intention-to-treat (mITT) population, defined as all enrolled subjects who received ≥1 dose of pegloticase. The proportion of Month 6 responders was summarized, along with a 95% confidence interval for the proportion. The proportion of Month 3 and overall (Months 3 and 6 combined) responders was analyzed similarly.
A subject was declared a non-responder if the subject had SUA level >6 mg/dL at 2 consecutive study visits beginning with the Week 2 Visit. In addition, a subject who withdraws from study treatment for any reason after the first dose of pegloticase in the KXX+MTX Period and prior to Month 6 (for the primary endpoint) or Month 3 (for the secondary endpoint) was considered a non-responder if SUA values were not collected at the planned time points.
Patients were administered oral MTX (15 mg/week) and folate (1 mg/day) 4 weeks prior to the first pegloticase infusion (Day 1) and throughout the pegloticase treatment period. Blood was drawn prior to each infusion to measure sUA level, monitor clinical parameters, and examine for ADA development. All patients followed typical IR prophylaxis protocols (fexofenadine one day before and the morning of each infusion and acetaminophen and IV corticosteroid the morning of each infusion).

## pegloticase
Week 20 - Post-Infusion
  Serum Uric Acid, Change from Baseline, Mean (SD): −8.97 (2.810) mg/dL
  Serum Uric Acid, Change from Baseline, Median: -8.80 mg/dL
  Serum Uric Acid, Observed, Mean (SD): 0.30 (0.000) mg/dL
  Serum Uric Acid, Observed, Median: 0.30 mg/dL
  sUA <6 mg/dL, n (%): 11 (100%)
Week 20 - Pre-Infusion
  Serum Uric Acid, Change from Baseline, Mean (SD): −8.97 (2.810) mg/dL
  Serum Uric Acid, Change from Baseline, Median: -8.80 mg/dL
  Serum Uric Acid, Observed, Mean (SD): 0.30 (0.000) mg/dL
  Serum Uric Acid, Observed, Median: 0.30 mg/dL
  sUA <6 mg/dL, n (%): 11 (100%)
Week 22 - Post-Infusion
  Serum Uric Acid, Change from Baseline, Mean (SD): −8.97 (2.810) mg/dL
  Serum Uric Acid, Change from Baseline, Median: -8.80 mg/dL
  Serum Uric Acid, Observed, Mean (SD): 0.30 (0.000) mg/dL
  Serum Uric Acid, Observed, Median: 0.30 mg/dL
  sUA <6 mg/dL, n (%): 11 (100%)
Week 22 - Pre-Infusion
  Serum Uric Acid, Change from Baseline, Mean (SD): −8.97 (2.810) mg/dL
  Serum Uric Acid, Change from Baseline, Median: -8.80 mg/dL
  Serum Uric Acid, Observed, Mean (SD): 0.30 (0.000) mg/dL
  Serum Uric Acid, Observed, Median: 0.30 mg/dL
  sUA <6 mg/dL, n (%): 11 (100%)
Week 24 - Post-Infusion
  Serum Uric Acid, Change from Baseline, Mean (SD): −9.18 (4.135) mg/dL
  Serum Uric Acid, Change from Baseline, Median: -9.30 mg/dL
  Serum Uric Acid, Observed, Mean (SD): 0.30 (0.000) mg/dL
  Serum Uric Acid, Observed, Median: 0.30 mg/dL
  sUA <6 mg/dL, n (%): 5 (100%)
Week 24 - Pre-Infusion
  Serum Uric Acid, Change from Baseline, Mean (SD): −8.97 (2.810) mg/dL
  Serum Uric Acid, Change from Baseline, Median: -8.80 mg/dL
  Serum Uric Acid, Observed, Mean (SD): 0.30 (0.000) mg/dL
  Serum Uric Acid, Observed, Median: 0.30 mg/dL
  sUA <6 mg/dL, n (%): 11 (100%)
Week 26 - Pre-Infusion
  Serum Uric Acid, Change from Baseline, Mean (SD): −9.11 (3.293) mg/dL
  Serum Uric Acid, Change from Baseline, Median: -8.95 mg/dL
  Serum Uric Acid, Observed, Mean (SD): 0.30 (0.000) mg/dL
  Serum Uric Acid, Observed, Median: 0.30 mg/dL
  sUA <6 mg/dL, n (%): 8 (100%)
Week 28 - Pre-Infusion
  Serum Uric Acid, Change from Baseline, Mean (SD): −9.11 (3.293) mg/dL
  Serum Uric Acid, Change from Baseline, Median: -8.95 mg/dL
  Serum Uric Acid, Observed, Mean (SD): 0.30 (0.000) mg/dL
  Serum Uric Acid, Observed, Median: 0.30 mg/dL
  sUA <6 mg/dL, n (%): 8 (100%)
Week 30 - Pre-Infusion
  Serum Uric Acid, Change from Baseline, Mean (SD): −9.11 (3.293) mg/dL
  Serum Uric Acid, Change from Baseline, Median: -8.95 mg/dL
  Serum Uric Acid, Observed, Mean (SD): 0.30 (0.000) mg/dL
  Serum Uric Acid, Observed, Median: 0.30 mg/dL
  sUA <6 mg/dL, n (%): 8 (100%)
Week 32 - Post-Infusion
  Serum Uric Acid, Change from Baseline, Mean (SD): −9.11 (3.293) mg/dL
  Serum Uric Acid, Change from Baseline, Median: -8.95 mg/dL
  Serum Uric Acid, Observed, Mean (SD): 0.30 (0.000) mg/dL
  Serum Uric Acid, Observed, Median: 0.30 mg/dL
  sUA <6 mg/dL, n (%): 8 (100%)
Week 32 - Pre-Infusion
  Serum Uric Acid, Change from Baseline, Mean (SD): −8.99 (2.961) mg/dL
  Serum Uric Acid, Change from Baseline, Median: -8.95 mg/dL
  Serum Uric Acid, Observed, Mean (SD): 0.30 (0.000) mg/dL
  Serum Uric Acid, Observed, Median: 0.30 mg/dL
  sUA <6 mg/dL, n (%): 10 (100%)
Week 34 - Post-Infusion
  Serum Uric Acid, Change from Baseline, Mean (SD): −9.11 (3.293) mg/dL
  Serum Uric Acid, Change from Baseline, Median: -8.95 mg/dL
  Serum Uric Acid, Observed, Mean (SD): 0.30 (0.000) mg/dL
  Serum Uric Acid, Observed, Median: 0.30 mg/dL
  sUA <6 mg/dL, n (%): 8 (100%)
Week 34 - Pre-Infusion
  Serum Uric Acid, Change from Baseline, Mean (SD): −8.47 (3.248) mg/dL
  Serum Uric Acid, Change from Baseline, Median: -7.95 mg/dL
  Serum Uric Acid, Observed, Mean (SD): 0.82 (1.046) mg/dL
  Serum Uric Acid, Observed, Median: 0.30 mg/dL
  sUA <6 mg/dL, n (%): 10 (100%)
Week 36 - Post-Infusion
  Serum Uric Acid, Change from Baseline, Mean (SD): −9.38 (3.799) mg/dL
  Serum Uric Acid, Change from Baseline, Median: -9.20 mg/dL
  Serum Uric Acid, Observed, Mean (SD): 0.30 (0.000) mg/dL
  Serum Uric Acid, Observed, Median: 0.30 mg/dL
  sUA <6 mg/dL, n (%): 6 (100%)
Week 36 - Pre-Infusion
  Serum Uric Acid, Change from Baseline, Mean (SD): −7.90 (4.094) mg/dL
  Serum Uric Acid, Change from Baseline, Median: -8.60 mg/dL
  Serum Uric Acid, Observed, Mean (SD): 1.58 (2.425) mg/dL
  Serum Uric Acid, Observed, Median: 0.30 mg/dL
  sUA <6 mg/dL, n (%): 8 (88.9%)
Week 38 - Pre-Infusion
  Serum Uric Acid, Change from Baseline, Mean (SD): −8.41 (5.229) mg/dL
  Serum Uric Acid, Change from Baseline, Median: -8.60 mg/dL
  Serum Uric Acid, Observed, Mean (SD): 0.93 (1.583) mg/dL
  Serum Uric Acid, Observed, Median: 0.30 mg/dL
  sUA <6 mg/dL, n (%): 5 (100%)
Week 40 - Pre-Infusion
  Serum Uric Acid, Change from Baseline, Mean (SD): −11.30 (3.686) mg/dL
  Serum Uric Acid, Change from Baseline, Median: -9.80 mg/dL
  Serum Uric Acid, Observed, Mean (SD): 0.30 (0.000) mg/dL
  Serum Uric Acid, Observed, Median: 0.30 mg/dL
  sUA <6 mg/dL, n (%): 3 (100%)
Week 42 - Pre-Infusion
  Serum Uric Acid, Change from Baseline, Mean (SD): −11.30 (3.686) mg/dL
  Serum Uric Acid, Change from Baseline, Median: -9.80 mg/dL
  Serum Uric Acid, Observed, Mean (SD): 0.30 (0.000) mg/dL
  Serum Uric Acid, Observed, Median: 0.30 mg/dL
  sUA <6 mg/dL, n (%): 3 (100%)
Week 44 - Pre-Infusion
  Serum Uric Acid, Change from Baseline, Mean (SD): −10.55 (4.625) mg/dL
  Serum Uric Acid, Change from Baseline, Median: -9.80 mg/dL
  Serum Uric Acid, Observed, Mean (SD): 1.05 (1.305) mg/dL
  Serum Uric Acid, Observed, Median: 0.30 mg/dL
  sUA <6 mg/dL, n (%): 3 (100%)
Week 46 - Pre-Infusion
  Serum Uric Acid, Change from Baseline, Mean (SD): −12.65 (4.031) mg/dL
  Serum Uric Acid, Change from Baseline, Median: -12.65 mg/dL
  Serum Uric Acid, Observed, Mean (SD): 0.30 (0.000) mg/dL
  Serum Uric Acid, Observed, Median: 0.30 mg/dL
  sUA <6 mg/dL, n (%): 2 (100%)
Week 48 - Post-Infusion
  Serum Uric Acid, Change from Baseline, Mean (SD): −10.33 (4.922) mg/dL
  Serum Uric Acid, Change from Baseline, Median: -9.80 mg/dL
  Serum Uric Acid, Observed, Mean (SD): 1.60 (2.252) mg/dL
  Serum Uric Acid, Observed, Median: 0.30 mg/dL
  sUA <6 mg/dL, n (%): 3 (100%)
Week 48 - Pre-Infusion
  Serum Uric Acid, Change from Baseline, Mean (SD): −12.65 (4.031) mg/dL
  Serum Uric Acid, Change from Baseline, Median: -12.65 mg/dL
  Serum Uric Acid, Observed, Mean (SD): 0.30 (0.000) mg/dL
  Serum Uric Acid, Observed, Median: 0.30 mg/dL
  sUA <6 mg/dL, n (%): 2 (100%)
Week 50 - Post-Infusion
  Serum Uric Acid, Change from Baseline, Mean (SD): −10.57 (4.598) mg/dL
  Serum Uric Acid, Change from Baseline, Median: -9.80 mg/dL
  Serum Uric Acid, Observed, Mean (SD): 1.37 (1.848) mg/dL
  Serum Uric Acid, Observed, Median: 0.30 mg/dL
  sUA <6 mg/dL, n (%): 3 (100%)
Week 50 - Pre-Infusion
  Serum Uric Acid, Change from Baseline, Mean (SD): −12.65 (4.031) mg/dL
  Serum Uric Acid, Change from Baseline, Median: -12.65 mg/dL
  Serum Uric Acid, Observed, Mean (SD): 0.30 (0.000) mg/dL
  Serum Uric Acid, Observed, Median: 0.30 mg/dL
  sUA <6 mg/dL, n (%): 2 (100%)
Week 52/ET
  Serum Uric Acid, Change from Baseline, Mean (SD): −12.65 (4.031) mg/dL
  Serum Uric Acid, Change from Baseline, Median: -12.65 mg/dL
  Serum Uric Acid, Observed, Mean (SD): 0.30 (0.000) mg/dL
  Serum Uric Acid, Observed, Median: 0.30 mg/dL
  sUA <6 mg/dL, n (%): 2 (100%)
